Here are results for 1 substance from US10287337B2 (priority 2015, dated 2019).

Like-named read-outs stand apart in the source and are kept apart here.

For test [1], the system named is spared nerve injury-induced neuropathic pain in rats. As to the kind of experiment: Spared nerve injury (SNI)-induced neuropathic pain model, thermal and mechanical pain thresholds. The class given is in vivo, rat. Conditions: 50 μL. How it is done:
Of the three branches of the sciatic nerve the tibial and common peroneal nerves were cut and ligated leaving the sural nerve intact. Pre-surgery baselines (BL, 100%) of the thermal and mechanical pain thresholds of the ipsilateral hindpaws were measured using the Hargreaves thermal stimulator (6.0 A with a surface temperature of 30° C.; Hargreaves et al., 1988) and von Frey hair monofilaments (up-down method, Chaplan et al., 1994). […] All drug testing was conducted with this post-SNI period.
The rat recovered from anesthesia within a few minutes and the thermal and mechanical pain thresholds were determined at 0.5, 1, 2, 3, 4, 5 and 6 hour after the treatment using the methods described above.
Using the same test protocol in a different cohort of SNI rats, novel AFA-peptide 3 (0.1, 1 and 3 μM, each 50 μL) or the vehicle (50 μL) was injected into the ipsilateral hindpaws under a brief and light anesthesia condition (with 2.5% isoflurane). The thermal and mechanical pain thresholds were determined at 0.5, 1, 2, 3, 4, 5 and 6 hour after the treatment. […]

Test [2] has as its system UVB radiation-induced inflammatory pain in rat cheek. The class given is in vivo. Conditions: topical application 10 μM, 100 μL.
Source text: Ultraviolet B (UVB) radiation causes cutaneous inflammation in humans and animals. One important clinical consequence of UVB-induced inflammation is causing hyperalgesia. Changes in thermal sensitivities in the area of primary UVB irradiation are well documented both in humans and in the animal models (Zhang et al., 2009). […] This model provides an experimental model of post radiation pain and can mimic one type of burn pain. To determine the magnitude of anti-inflammatory pain effects for a given drug transdermally delivered by way of microneedle delivery, the depilated rat's cheeks were exposed to an inflammatory dosage of Ultraviolet B radiation (Zhang et al., 2009).
With the skin of a rat's cheek was stretched, the circular (8 mm in diameter) fiberglass applicator of the UV Curing Device (Dymax Bluewave 200) was applied to the center of the rat's cheek. To produce an appropriate inflammation, a total dose of 1200 mJ/cm^2 UVB was administered to one rat cheek for 25 seconds. The same procedure was performed on the rat's contralateral cheek. Upon completion of UVB irradiation, all rats were returned to their home cages and were assessed for thermal pain between 24-48 hours later. […] The rats were lightly anesthetized with urethane (800 mg/kg, IP) and heat-induced withdrawal latencies of the cheeks (an indicator of C fiber stimulation responses) were measured. […] A sham control group (n=6) were only completely depilated and cleansed with ethanol wipes but without UVB challenge.
After removing patches, cheek withdrawal latencies induced by continuous and noxious heat were assessed at different time points from the end of the 20 minute treatment period up to 3 hours post treatment.
The patches were applied on the rat cheek for 20 minutes. After removing the patches, cheek withdrawal latencies induced by continuous and noxious heat were assessed at different time points up to 3 hours as described above.
(§1) After removing the patches, cheek withdrawal latencies induced by continuous and noxious heat were assessed at different time points up to 3 hours.
Accordingly, anti-inflammatory effects were examined 48 hours post-UVB and after the application of the patch. Twelve rats were subjected to UVB radiation (1200 mJ/cm^2). […] The patch was placed over the inflamed area for a period of 20 minutes. […] Sham control group rats (n=6) were completely depilated and cleansed with ethanol wipes but without any other treatment. The rats were returned to their home cages, and assessed for thermal pain responses 48 hours later. As usual, cheek withdrawal latencies in response to continuous and noxious heat were recorded over a 3-hour time period (hours 49-51 post-UVB).
as §1
After removing the patches, cheek withdrawal latencies induced by continuous and noxious heat were assessed at different time points from 20 minutes post administration up to 3 hours.
Because UVB-irradiation may increase skin permeability, a topical formulation, but not limited to the sample shown here, was made.

Test [3] addresses T1, human calcitonin CGRP1 (CGRP1) membrane (Homo sapiens, UniProt O60894+Q16602).
T1 construct: purchased Perkin Elmer (Waltham, Mass.)
In kind it is binding. The conditions noted are these: for binding affinity on CGRP receptors (in words): comparison between peptides. The protocol:
CGRP1 membrane was homogenized in the assay buffer (50 mM Tris-HCl pH 7.4, 5 mM MgCl2, 0.5% BSA, 0.05% Tween20). […] After 1 h of incubation, at room temperature, samples were filtered, using a Tomtec cell harvester, through glass fiber filters that had been presoaked in 0.05% polyethyleneimine and washed with the cold Tris buffer (50 mM Tris-HCl pH7.4). Filters were counted on a betaplate reader (Wallac).

Test [4] relates to electrocutaneous stimulation-induced facial pain in rats. The experiment in a line: Electrocutaneous stimulation-induced facial inflammatory pain model. The class given is in vivo, rat. The conditions noted are these: intranasal. How it is done: In humans electrocutaneous stimulation elicited vasodilatation in the cheek (Vassend and Knardahl, 2005). […] Baseline facial thermal thresholds of rats (Sprague-Dawley, male, 260-300 g) were assessed on the rats' depilated left cheek and then each rat received 1 hour of electrocutaneous facial stimulation using WPI ISOSTIM™ A320 (World Precision Instruments, 0.4 mA intensity, 10 ms duration, Is inter-pulse interval). 24 hr after stimulation (Day 1), each rat's thermal pain threshold mediated by A-delta fiber and C fiber were separately measured using a thermal nociception lamp (variable voltage regulator model: No. SC-3M) to evoke A-delta and C nerve fiber-mediated cheek withdrawal. […] Thermal thresholds were measured once every 0.5 hour for the first 3 hours post-I.N. dosing, and then 4, 5, and 6 hour post-I.N. dosing. Voltage regulator set to 90V for A-delta fiber testing and 45V for C fiber testing. Cutoff set at 6 seconds and 20 seconds for A-delta fiber and C fiber testing, respectively.

Where [5] appears, read: daily intradermal injection 1 μM, 10 consecutive days.

T1 sequence (O60894 27-148): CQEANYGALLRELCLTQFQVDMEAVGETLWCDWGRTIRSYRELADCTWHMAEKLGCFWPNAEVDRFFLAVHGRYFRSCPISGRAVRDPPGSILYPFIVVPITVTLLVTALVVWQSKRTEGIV
T1 sequence (Q16602 23-461): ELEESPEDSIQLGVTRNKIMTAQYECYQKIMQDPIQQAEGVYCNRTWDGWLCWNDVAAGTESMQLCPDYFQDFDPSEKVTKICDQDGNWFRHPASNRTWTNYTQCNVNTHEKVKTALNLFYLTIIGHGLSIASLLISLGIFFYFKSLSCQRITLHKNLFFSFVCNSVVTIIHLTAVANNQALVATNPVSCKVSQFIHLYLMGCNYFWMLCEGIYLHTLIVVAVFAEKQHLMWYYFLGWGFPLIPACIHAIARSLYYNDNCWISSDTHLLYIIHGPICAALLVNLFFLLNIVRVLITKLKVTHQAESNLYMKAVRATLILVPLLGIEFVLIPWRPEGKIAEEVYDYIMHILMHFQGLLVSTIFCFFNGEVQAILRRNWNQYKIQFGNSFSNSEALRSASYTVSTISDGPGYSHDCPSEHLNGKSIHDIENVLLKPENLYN

As usually defined, the Hill slope is the slope factor of the fitted curve. For “H-NFVPTNVGPFAF-NH2 [AFA-peptide 3, NH2-N-F-V-P-T-N-V-G-P-F-A-F-CONH2]”, in test [1] (setting [5]), the “analgesic effect on repeated dosing (in words)” value is listed as “consistent analgesic effects” and the “tolerance on repeated dosing (in words)” value is on record as “did not cause tolerance”. For the same substance, in test [1] (local intradermal injection into SNI ipsilateral hindpaw, 0.5-6 hour after treatment, vs vehicle), the “thermal and mechanical pain thresholds (in words)” value is “produced analgesic effects, particularly on thermal pain in a dose-related manner”. The substance further showed a duration of action in test [2] of 2 h. The “C-fiber-mediated thermal pain thresholds vs vehicle (in words)” value in test [2] (2% propylene glycol, UVB-irradiated cheek) is “significant and substantial increase”. The Hill slope in test [3] (0.24 nM [125I]-CGRP, Mean±SD) was found to be 1.20 ± 0.02. The “binding affinity on CGRP receptors (in words)” value in test [3] was “higher affinities than conventional CGRP 27-37 and CGRP 8-37”. The “binding affinity on CGRP receptors (in words)” value in test [3] (listed as Peptide-3) is recorded as “most potent in binding assay”. Further, in test [4] (1 μM), the “A-delta fiber-mediated pain withdrawal latencies vs vehicle (in words)” value was “significantly prolonged”; the “C-fiber-mediated pain withdrawal latencies vs vehicle (in words)” value was “even more substantial and significantly prolonged”. For the same substance, the “thermal pain thresholds in naïve, non-facial stimulation rats (in words)” value in test [4] (data not shown) is listed as “did not alter thermal pain thresholds”.
